# Measurements as given in US8471005B2 (Cephalon, Inc., priority 2008, dated 2013).
# Where two headings read alike, the source gives them in different places.
# Tests used:
# [1] = biological target: T1, JAK2 (Homo sapiens, UniProt O60674); assay: Recombinant Human JAK2 Kinase Assay (TRF); type: biochemical; conditions: read-out: JAK2 Potency
# T1 construct: host or cells: baculovirus expression system
# Procedure, shortened: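 Baculovirus-expressed JAK2 (15 ng/ml) phosphorylated a biotinylated 15-mer peptide captured on Neutravidin, in 20 mM HEPES pH 7.2, 0.2 μM ATP, 1 mM MnCl2, 0.1% BSA, 2.5% DMSO final, 20 min at room temperature. Phosphoproduct detected by time-resolved fluorescence with Eu-N1-labelled PY100 antibody.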
# [2] = biological target: T2, ALK (Homo sapiens, UniProt Q9UM73); assay: ALK Kinase Assay (ELISA/TRF, PLC-γ substrate); type: biochemical; conditions: read-out: ALK Potency
# T2 construct: host or cells: baculovirus expression system
# Procedure, shortened: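 PLC-γ coat 10 μg/mL in TBS; ALK 30 ng/ml added to start; 37° C, 15 min; Eu-N1 PT66 antibody detection (TRF). IC50: % inhibition vs log10 [cpd], variable-slope sigmoidal fit.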
# [3] = JAK2 kinase inhibition, 0.2 μM ATP
# [4] = ALK kinase inhibition, 1 μM ATP
# T2 sequence (Q9UM73 19-1620): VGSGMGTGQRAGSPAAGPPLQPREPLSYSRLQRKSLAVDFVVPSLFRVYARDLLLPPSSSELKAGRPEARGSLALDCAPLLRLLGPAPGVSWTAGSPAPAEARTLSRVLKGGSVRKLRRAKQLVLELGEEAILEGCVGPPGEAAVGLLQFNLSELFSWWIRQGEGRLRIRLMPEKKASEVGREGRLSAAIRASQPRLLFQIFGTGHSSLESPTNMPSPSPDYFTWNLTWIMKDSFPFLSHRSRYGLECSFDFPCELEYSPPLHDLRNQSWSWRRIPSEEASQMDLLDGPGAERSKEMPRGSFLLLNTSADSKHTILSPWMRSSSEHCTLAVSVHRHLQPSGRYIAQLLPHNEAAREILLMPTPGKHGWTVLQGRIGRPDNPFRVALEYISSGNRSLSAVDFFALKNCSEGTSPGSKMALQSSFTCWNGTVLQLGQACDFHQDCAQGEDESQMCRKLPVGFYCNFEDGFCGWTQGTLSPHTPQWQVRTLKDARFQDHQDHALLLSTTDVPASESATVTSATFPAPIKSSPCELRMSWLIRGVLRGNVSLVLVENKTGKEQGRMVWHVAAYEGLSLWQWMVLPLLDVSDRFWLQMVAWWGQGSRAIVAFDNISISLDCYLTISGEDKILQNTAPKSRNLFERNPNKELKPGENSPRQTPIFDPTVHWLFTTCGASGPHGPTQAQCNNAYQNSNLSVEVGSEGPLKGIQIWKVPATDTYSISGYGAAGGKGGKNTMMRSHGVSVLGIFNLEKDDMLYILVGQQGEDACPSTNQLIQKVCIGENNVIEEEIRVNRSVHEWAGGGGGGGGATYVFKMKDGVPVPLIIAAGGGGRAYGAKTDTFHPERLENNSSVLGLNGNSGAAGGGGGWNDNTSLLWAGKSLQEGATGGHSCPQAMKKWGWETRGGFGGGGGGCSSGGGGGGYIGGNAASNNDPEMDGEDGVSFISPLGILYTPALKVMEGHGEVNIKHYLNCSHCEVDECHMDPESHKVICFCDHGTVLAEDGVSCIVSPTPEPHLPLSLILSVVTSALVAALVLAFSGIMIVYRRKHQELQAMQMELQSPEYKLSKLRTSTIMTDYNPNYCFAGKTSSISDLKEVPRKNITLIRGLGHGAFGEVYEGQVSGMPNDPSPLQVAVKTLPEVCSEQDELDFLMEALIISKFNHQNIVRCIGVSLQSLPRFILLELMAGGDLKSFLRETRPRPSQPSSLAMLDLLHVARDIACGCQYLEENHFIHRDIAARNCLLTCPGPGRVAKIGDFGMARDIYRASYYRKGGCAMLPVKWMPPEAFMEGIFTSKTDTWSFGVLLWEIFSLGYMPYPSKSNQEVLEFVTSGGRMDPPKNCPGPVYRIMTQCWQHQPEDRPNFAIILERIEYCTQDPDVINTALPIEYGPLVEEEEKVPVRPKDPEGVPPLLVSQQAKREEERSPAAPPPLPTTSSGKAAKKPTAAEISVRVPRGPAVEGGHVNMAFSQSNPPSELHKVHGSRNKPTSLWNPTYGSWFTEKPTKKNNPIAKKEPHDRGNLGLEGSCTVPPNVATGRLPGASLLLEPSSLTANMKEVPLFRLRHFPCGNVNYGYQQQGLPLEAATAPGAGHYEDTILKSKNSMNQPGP
# T1 sequence (O60674 whole entry): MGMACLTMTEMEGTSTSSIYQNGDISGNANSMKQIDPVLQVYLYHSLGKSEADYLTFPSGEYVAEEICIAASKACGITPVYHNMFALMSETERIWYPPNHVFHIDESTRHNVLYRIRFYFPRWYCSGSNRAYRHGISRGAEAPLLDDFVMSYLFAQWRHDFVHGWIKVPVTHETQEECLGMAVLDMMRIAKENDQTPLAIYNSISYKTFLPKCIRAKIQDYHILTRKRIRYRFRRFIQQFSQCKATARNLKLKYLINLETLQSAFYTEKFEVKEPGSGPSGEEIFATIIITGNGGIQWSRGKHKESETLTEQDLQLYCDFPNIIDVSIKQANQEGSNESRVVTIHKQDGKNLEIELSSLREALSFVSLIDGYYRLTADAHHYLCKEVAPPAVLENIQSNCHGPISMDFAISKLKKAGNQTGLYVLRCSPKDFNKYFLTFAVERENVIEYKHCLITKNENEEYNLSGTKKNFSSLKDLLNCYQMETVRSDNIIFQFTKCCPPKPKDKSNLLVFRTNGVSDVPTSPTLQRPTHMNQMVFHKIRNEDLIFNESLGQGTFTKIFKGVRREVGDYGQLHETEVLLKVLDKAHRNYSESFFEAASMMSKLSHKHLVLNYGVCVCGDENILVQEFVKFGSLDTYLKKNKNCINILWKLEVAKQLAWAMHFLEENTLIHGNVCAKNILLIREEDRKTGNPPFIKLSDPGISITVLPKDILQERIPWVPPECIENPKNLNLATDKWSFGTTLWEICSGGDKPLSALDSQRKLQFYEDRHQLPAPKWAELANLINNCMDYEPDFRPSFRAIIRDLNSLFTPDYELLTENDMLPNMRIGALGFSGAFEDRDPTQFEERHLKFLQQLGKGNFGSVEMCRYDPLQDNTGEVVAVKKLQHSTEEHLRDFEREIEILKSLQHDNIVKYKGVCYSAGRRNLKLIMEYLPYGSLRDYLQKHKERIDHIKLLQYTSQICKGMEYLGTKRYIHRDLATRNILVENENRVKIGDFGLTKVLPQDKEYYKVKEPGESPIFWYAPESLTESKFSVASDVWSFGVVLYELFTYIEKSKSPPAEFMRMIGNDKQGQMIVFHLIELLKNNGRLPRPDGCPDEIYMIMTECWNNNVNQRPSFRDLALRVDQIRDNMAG
Compound,"IC50 [1, 3] [nM]","IC50 [2, 4] [nM]",IC50 ([1]; JAK2 Kinase Inhibition) [nM],IC50 ([2]; ALK Kinase Inhibition) [nM]
"COc1ccccc1-c1ccc2cnc(Nc3ccc(N4CCCC(C(=O)N5CCN(C)CC5)C4)cc3)nn12 (stereo not drawn) [Example 443, (1-{4-[7-(2-Methoxy-phenyl)-pyrrolo[2,1-f][1,2,4]triazin-2-ylamino]-phenyl}-piperidin-3-yl)-(4-methyl-piperazin-1-yl)-methanone]",,,< 100,< 100
"COc1ccccc1-c1ccc2cnc(Nc3ccc(C(C)C)c(NC(C)=O)c3)nn12 [Example 301, N-{2-Isopropyl-5-[7-(2-methoxy-phenyl)-pyrrolo[2,1-f][1,2,4]triazin-2-ylamino]-phenyl}-acetamide]",,,< 100,100 to 1000
"c1cc2cnc(Nc3ccc(N4CCOCC4)cc3)nn2c1 [Example 50, (4-Morpholin-4-yl-phenyl)-pyrrolo[2,1-f][1,2,4]triazin-2-yl-amine]",,,< 100,> 10000
"Clc1cccc(-c2ccc3cnc(Nc4cccc(N5CCOCC5)c4)nn23)c1 [Example 148, [7-(3-Chloro-phenyl)-pyrrolo[2,1-f][1,2,4]triazin-2-yl]-(3-morpholin-4-yl-phenyl)-amine]",,,< 100,1000 to 10000
"[7-(6-Methoxy-pyridin-3-yl)-pyrrolo[2,1-f][1,2,4]triazin-2-yl]-(2-methyl-1,2,3,4-tetrahydro-isoquinolin-7-yl)-amine [Example 985]",< 100,< 100,,
"COc1ccc(Cl)cc1-c1ccc2cnc(Nc3ccc(N4CCCC4)cc3)nn12 [Example 168, [7-(5-Chloro-2-methoxy-phenyl)-pyrrolo[2,1-f][1,2,4]triazin-2-yl]-(4-pyrrolidin-1-yl-phenyl)-amine]",,,< 100,1000 to 10000
"c1cncc(-c2ccc3cnc(Nc4cc[nH]n4)nn23)c1 [Example 124, (1H-Pyrazol-3-yl)-(7-pyridin-3-yl-pyrrolo[2,1-f][1,2,4]triazin-2-yl)-amine]",,,< 100,1000 to 10000
"N-{2-[2-(5,5-Dimethyl-2-oxo-2,3,4,5-tetrahydro-1H-benzo[b]azepin-7-ylamino)pyrrolo[2,1-f][1,2,4]triazin-7-yl}-phenyl]methanesulfonamide [Example 624]",< 100,< 100,,
"COc1ccccc1-c1ccc2cnc(Nc3cccc(N4CCC(N5CCOCC5)CC4)c3)nn12 [Example 195, [7-(2-Methoxy-phenyl)-pyrrolo[2,1-f][1,2,4]triazin-2-yl]-[3-(4-morpholin-4-yl-piperidin-1-yl)-phenyl]-amine]",,,< 100,< 100
"CN(C)CCNC(=O)c1ccc(-c2ccc3cnc(Nc4ccc(N5CCOCC5)cc4)nn23)cc1 [Example 52, N-(2-Dimethylamino-ethyl)-4-[2-(4-morpholin-4-yl-phenylamino)-pyrrolo[2,1-f][1,2,4]triazin-7-yl]-benzamide]",,,< 100,100 to 1000
"COc1ccc(Cl)cc1-c1ccc2cnc(Nc3ccc4[nH]ccc4c3)nn12 [Example 171, [7-(5-Chloro-2-methoxy-phenyl)-pyrrolo[2,1-f][1,2,4]triazin-2-yl]-(1H-indol-5-yl)-amine]",,,< 100,100 to 1000
"CN1CCN(C(=O)C2CCCN(c3ccc(Nc4ncc5ccc(-c6ccc(S(C)(=O)=O)cc6)n5n4)cc3)C2)CC1 (stereo not drawn) [Example 446, (1-{4-[7-(4-Methanesulfonyl-phenyl)-pyrrolo[2,1-f][1,2,4]triazin-2-ylamino]-phenyl}-piperidin-3-yl)-(4-methyl-piperazin-1-yl)-methanone]",,,< 100,1000 to 10000

# Other lines, results leading:
"IC50 [1, 3] [nM]","IC50 [2, 4] [nM]",IC50 ([1]; JAK2 Kinase Inhibition) [nM],IC50 ([2]; ALK Kinase Inhibition) [nM],Compound
< 100,< 100,,,"CN1CCN(CC2CCN(c3ccc(Nc4ncc5ccc(-c6cccc(S(=O)(=O)NC(C)(C)C)c6)n5n4)cc3)CC2)CC1 [Example 589, N-tert-Butyl-3-(2-{4-[4-(4-methyl-piperazin-1-ylmethyl)-piperidin-1-yl]-phenylamino}-pyrrolo[2,1-f][1,2,4]triazin-7-yl)-benzenesulfonamide]"
,,< 100,100 to 1000,"CC(=O)Nc1cccc(Nc2ncc3ccc(-c4cccc(S(=O)(=O)NC(C)(C)C)c4)n3n2)c1 [Example 1368, N-{3-[7-(3-tert-Butylsulfamoyl-phenyl)-pyrrolo[2,1-f][1,2,4]triazin-2-ylamino]-phenyl}-acetamide]"
< 100,> 10000,,,"COc1ccc(-c2ccc3cnc(Nc4ccc5c(c4)N(C)CCC5)nn23)cn1 [Example 980, [7-(6-Methoxy-pyridin-3-yl)-pyrrolo[2,1-f][1,2,4]triazin-2-yl]-(1-methyl-1,2,3,4-tetrahydro-quinolin-7-yl)-amine]"
,,< 100,< 100,"C[C@H](O)CN1CCN(c2cc([S@@+](C)[O-])c(Nc3ncc4ccc(-c5ccccc5N(C)S(C)(=O)=O)n4n3)cc2F)CC1 [Example 1484, (R,S)—N-[2-(2-{5-Fluoro-4-[4-((S)-2-hydroxy-propyl)-piperazin-1-yl]-2-methanesulfinyl-phenylamino}-pyrrolo[2,1-f][1,2,4]triazin-7-yl)-phenyl]-N-methyl-methanesulfonamide]"
< 100,100 to 1000,,,"COc1ccccc1-c1cc(O)c2cnc(Nc3ccc(C4CCN(CC(N)=O)CC4)cc3)nn12 [Example 1260, 2-(4-{4-[5-Hydroxy-7-(2-methoxy-phenyl)-pyrrolo[2,1-f][1,2,4]triazin-2-ylamino]-phenyl}-piperidin-1-yl)-acetamide]"
< 100,1000 to 10000,,,"COc1ccc(-c2ccc3cnc(Nc4ccc5c(c4)CN(CC(N)=O)C5)nn23)cn1 [Example 926, 2-{5-[7-(6-Methoxy-pyridin-3-yl)-pyrrolo[2,1-f][1,2,4]triazin-2-ylamino]-1,3-dihydro-isoindol-2-yl}-acetamide]"
< 100,1000 to 10000,,,"CN(c1ccccc1-c1ccc2cnc(Nc3cncc(C(N)=O)c3)nn12)S(C)(=O)=O [Example 666, 5-{7-[2-(Methanesulfonyl-methyl-amino)-phenyl]-pyrrolo[2,1-f][1,2,4]triazin-2-ylamino}-nicotinamide]"
1000 to 10000,100 to 1000,,,"COc1cc(N2CCC(N3CCOCC3)CC2)ccc1Nc1ncc2ccc(-c3c(OC)cccc3OC)n2n1 [Example 542, [7-(2,6-Dimethoxy-phenyl)-pyrrolo[2,1-f][1,2,4]triazin-2-yl]-[2-methoxy-4-(4-morpholin-4-yl-piperidin-1-yl)-phenyl]-amine]"
< 100,1000 to 10000,,,"COc1ccc(-c2ccc3cnc(Nc4ccn(CC(=O)N5CCN(C)CC5)n4)nn23)cn1 [Example 1115, 2-{3-[7-(6-Methoxy-pyridin-3-yl)-pyrrolo[2,1-f][1,2,4]triazin-2-ylamino]-pyrazol-1-yl}-1-(4-methyl-piperazin-1-yl)-ethanone]"
< 100,100 to 1000,,,"COc1ccc(-c2ccc3cnc(Nc4ccc(CN5CCN(C)CC5)cc4)nn23)cn1 [Example 1214, [7-(6-Methoxy-pyridin-3-yl)-pyrrolo[2,1-f][1,2,4]triazin-2-yl]-[4-(4-methyl-piperazin-1-ylmethyl)-phenyl]-amine]"
,,> 10000,> 10000,"COc1ccccc1-c1ccc2cnc(-c3nnn[nH]3)nn12 [Example 1502, 7-(2-Methoxy-phenyl)-2-(1H-tetrazol-5-yl)-pyrrolo[2,1-f][1,2,4]triazine]"
,,< 100,< 100,"CCN(c1ccccc1-c1ccc2cnc(Nc3ccc(N4CCC(N5CCOCC5)CC4)cc3OC)nn12)S(C)(=O)=O [Example 1460, N-Ethyl-N-(2-{2-[2-methoxy-4-(4-morpholin-4-yl-piperidin-1-yl)-phenylamino]-pyrrolo[2,1-f][1,2,4]triazin-7-yl}-phenyl)-methanesulfonamide]"
,,< 100,< 100,"COc1cc(N2CCCC(N3CCN(C)CC3)C2)ccc1Nc1ncc2ccc(-c3ccccc3OC)n2n1 (single isomer, unassigned) [Example 1441, {2-Methoxy-4-[3-(4-methyl-piperazin-1-yl)-piperidin-1-yl]-phenyl}-[7-(2-methoxy-phenyl)-pyrrolo[2,1-f][1,2,4]triazin-2-yl]-amine]"
,,< 100,100 to 1000,"COCc1cccc(-c2ccc3cnc(Nc4ccc(N5CCN(C)CC5)cc4)nn23)c1 [Example 1503, [7-(3-Methoxymethyl-phenyl)-pyrrolo[2,1-f][1,2,4]triazin-2-yl]-[4-(4-methyl-piperazin-1-yl)-phenyl]-amine]"
< 100,100 to 1000,,,"CN1CCN(c2ccc(Nc3ncc4ccc(-c5ccccc5OCC(=O)O)n4n3)cc2)CC1 [Example 1182, (2-{2-[4-(4-Methyl-piperazin-1-yl)-phenylamino]-pyrrolo[2,1-f][1,2,4]triazin-7-yl}-phenoxy)-acetic acid]"
< 100,1000 to 10000,,,"CS(=O)(=O)c1ccc(-c2ccc3cnc(Nc4ccc5[nH]c(=O)[nH]c5c4)nn23)cc1 [Example 1303, 5-[7-(4-Methanesulfonyl-phenyl)-pyrrolo[2,1-f][1,2,4]triazin-2-ylamino]-1,3-dihydro-benzimidazol-2-one]"
< 100,100 to 1000,,,"COc1ccc(-c2ccc3cnc(Nc4ccc(C5CCN(C)CC5)cc4)nn23)cn1 [Example 1180, [7-(6-Methoxy-pyridin-3-yl)-pyrrolo[2,1-f][1,2,4]triazin-2-yl]-[4-(1-methyl-piperidin-4-yl)-phenyl]-amine]"
< 100,100 to 1000,,,"CN1CCOCc2cc(Nc3ncc4ccc(-c5ccccc5N(C)S(C)(=O)=O)n4n3)ccc21 [Example 616, N-Methyl-N-{2-[2-(1-methyl-1,2,3,5-tetrahydro-benzo[e][1,4]oxazepin-7-ylamino)-pyrrolo[2,1-f][1,2,4]triazin-7-yl]-phenyl}-methanesulfonamide]"
